Test results from US6410596B1 (Insmed Incorporated, priority 2000, dated 2002).

How the values were obtained:
[1] = system: C57BL/ks diabetic (db/db) mice; assay: Plasma glucose lowering in diabetic db/db mice; type: in vivo; details: for Change in Glucose 6 H: 125 mg/kg q.d. oral (0, 24, 48 h), 6 h after initial dose, Table 8 experiment (FIG. 5)
Experimental: (§1) Genetically altered obese diabetic mice (designated C57BL/ks diabetic or db/db) were purchased from the Jackson Laboratory (Bar Harbor, Me., USA), and served as experimental animals. Male animals between the ages of 8-9 weeks were employed in the studies described here. Animals were housed (4 mice/cage) under standard laboratory conditions at 22° C. and 50% relative humidity, and were maintained on a diet of Purina rodent chow and water ad libitum. Prior to treatment, blood was collected from the tail vein of each a nimal. Mice that had plasma glucose levels between 350 and 600 mg/dL were used. Each treatment group consisted of eight mice that were distributed so that the mean glucose levels were equivalent in each group at the start of the study. Db/db mice received, orally by gavage: the experimental compound administered at 62.5, 125, or 250 mg/kg/day (unless otherwise noted), or metformin administered at […] for 1-3 days, Test compounds were delivered in a liquid vehicle containing 0.25% (w/v) carboxymethyl-cellulose, 1% (v/v) Tween 60® (polyoxyethylene sorbitan monosterate), and up to 10% (v/v) dimethyl sulfoxide (DMSO) in a volume of 10 ml/kg. Blood was sampled from the tail vein at three hours, six, eight, twenty-four, and thirty hours post-administration (the first administration) of the particular compound in non-fasted conditions. Experiments 3-5 also sampled blood at fifty-four hours post-administration (the first administration) of the particular compound in non-fasted conditions. Blood samples were analyzed for plasma glucose levels. Individual body weights and mean food consumption (each cage) were also measured daily.
The isolated test substances were prepared as described previously (vide supra). Metformin (1,1-dimethylbiguanide), carboxymethyl cellulose and Tween 60 were purchased from Sigma Chemical Co. (St. Louis, Mo., USA; catalog #'s D-5035, C-4888, and p-1629, respectively). Plasma glucose levels were determined […] using glucose oxidase (Sigma Chemical Co.; Sigma catalog #315). Significant differences between groups (comparing compound-treated to vehicle-treated) were evaluated using analysis of variance and Fisher's post-hoc test. […]

[2] = Body weights and food consumption in diabetic db/db mice; type: in vivo
Experimental: as §1

[3] = 125 mg/kg oral, Table 10 experiment
[4] = 125 mg/kg oral, Table 8 experiment
[5] = 125 mg/kg, Table 10/11 experiment

5-hydroxy-3-methoxy-2-(3-methyl-2-butenyl)stilbene [Compound A]
mean glucose levels declined from the baseline values ([1]; decline, 62.5 mg/kg, 30 h after initial dosing, Tables 4/6 experiment): 40.7 mg/dL
mean glucose levels declined from the baseline values ([1]; decline, 125 mg/kg, 30 h after initial dosing, Tables 4/6 experiment): 69.7 mg/dL
mean glucose levels declined from the baseline values ([1]; decline, 250 mg/kg (also metformin 250 mg/kg), 30 h after initial dosing, Tables 4/6 experiment): 221.4 mg/dL

COc1cc(O)cc(CCc2ccccc2)c1CCC(C)C [Compound F]
hypoglycemic effect relative to vehicle [1, 3]: statistically significant reduction in plasma glucose
Food Intake 0-48 h ([2]; 125 mg/kg, Table 11): 5.8 g/mouse
Body weight (mean) 0 h ([2]; 125 mg/kg, Table 11): 39.3 ± 0.8 g/mouse
Body weight (mean) 48 hr ([2]; 125 mg/kg, Table 11): 39.8 ± 0.8 g/mouse

CN(C)C(=N)N=C(N)N [Metformin, 1,1-dimethylbiguanide, reference compound]
Food Intake 0-48 h ([2]; 250 mg/kg, Table 5): 5.1 g/mouse
Body weight (mean) 0 h ([2]; 250 mg/kg, Table 5): 37.3 ± 0.7 g/mouse
Body weight (mean) 48 hr ([2]; 250 mg/kg, Table 5): 37.2 ± 0.6 g/mouse

COc1cc(O)cc(CCc2ccccc2)c1CC=C(C)C [Compound E]
hypoglycemic effect relative to vehicle [1, 4]: statistically significant reduction in plasma glucose
hypoglycemic effect relative to vehicle [1, 3]: statistically significant reduction in plasma glucose
Change in Glucose 6 H [1]: -2.1 mg/dL
Food Intake 0-48 h ([2]; 125 mg/kg, Table 11): 5.7 g/mouse
Body weight (mean) 0 h ([2]; 125 mg/kg, Table 11): 39.6 ± 0.3 g/mouse
Body weight (mean) 48 hr ([2]; 125 mg/kg, Table 11): 40.2 ± 0.4 g/mouse
effect on food intake or body weight ([2]; 125 mg/kg, Table 8 experiment): absence of any significantly adverse effect on food intake or body weight
effect on food intake or body weight [2, 5]: absence of any significantly adverse effect on food intake or body weight

COc1cc(/C=C/c2ccccc2)c(C(=O)O)c(O)c1CC=C(C)C [Compound C, 3-hydroxy-4-(3-methyl-2-butenyl)-5-methoxystilbene-2-carboxylic acid]
hypoglycemic effect relative to vehicle ([1]; 250 mg/kg oral, FIG. 2 experiment): statistically significant reduction in plasma glucose
hypoglycemic effect relative to vehicle ([1]; 62.5, 125, and 250 mg/kg oral, Tables 4/6 experiment): statistically significant reduction in plasma glucose
mean glucose levels declined from the baseline value ([1]; decline, 125 mg/kg, 54 h after initial dosing, Tables 4/6 experiment): 60.4 mg/dL
mean glucose levels declined from the baseline values ([1]; decline, 250 mg/kg (also metformin 250 mg/kg), 54 h after initial dosing, Tables 4/6 experiment): 122.0 mg/dL
effect on food intake or body weight ([2]; 62.5 mg/kg, 125 mg/kg, and 250 mg/kg, Tables 4/6 experiment): absence of any significantly adverse effect on food intake or body weight
effect on food intake or body weight ([2]; 250 mg/kg, FIG. 2 experiment): absence of any significantly adverse effect on food intake or body weight
food intake versus normal food intake range (5-6 g/day/mouse) ([2]; 250 mg/kg, FIG. 2 experiment): less than that of the normal food intake range
food intake versus normal food intake range (5-6 g/day/mouse) ([2]; 250 mg/kg, Tables 4/6 experiment): less than that of the normal food intake range

COc1cc(O)cc(CCc2ccccc2)c1 [Compound G, 3-hydroxy-5-methoxybibenzene]
hypoglycemic effect relative to vehicle [1, 4]: statistically significant reduction in plasma glucose
Change in Glucose 6 H [1]: 35.0 mg/dL
effect on food intake or body weight ([2]; 125 mg/kg, Table 8 experiment): absence of any significantly adverse effect on food intake or body weight
effect on food intake or body weight [2, 5]: absence of any significantly adverse effect on food intake or body weight

COc1cc(/C=C/c2ccccc2)cc(O)c1CC=C(C)C [Compound D, 3-hydroxy-5-methoxy-4-(3-methyl-2-butenyl)stilbene]
hypoglycemic effect relative to vehicle [1, 3]: statistically significant reduction in plasma glucose
Food Intake 0-48 h ([2]; 125 mg/kg, Table 11): 5.7 g/mouse
Body weight (mean) 0 h ([2]; 125 mg/kg, Table 11): 39.3 ± 0.6 g/mouse
Body weight (mean) 48 hr ([2]; 125 mg/kg, Table 11): 39.7 ± 0.7 g/mouse
